Earlier results in patent US20190175504A1, “Carbohydrate-Derivatized Liposomes for Targeting Cellular Carbohydrate Recognition Domains of Ctl/Ctld Lectins, and Intracellular Delivery of Therapeutically Active Compounds” (RODOS BioTarget GmbH, priority 2004, published 2019).

Key:
[1] = tested on: mouse model of liver damage

Structure (SMILES): C[C@H](NC(=O)C(=O)Nc1ccccc1C(C)(C)C)C(=O)N[C@@H](CC(=O)O)C(=O)COc1c(F)c(F)cc(F)c1F [IDN-6556]
- pathologic values of liver parameters (e.g., ALT) (HCV-positive patients): significantly reduces
- antifibrotic effect (bile duct-ligated mouse): proven beneficial as an antifibrotic agent

Structure (SMILES): Cc1ccc(C(=O)Nc2ccc(S(=O)(=O)O)c3cc(S(=O)(=O)O)cc(S(=O)(=O)O)c23)cc1NC(=O)c1cccc(NC(=O)Nc2cccc(C(=O)Nc3cc(C(=O)Nc4ccc(S(=O)(=O)O)c5cc(S(=O)(=O)O)cc(S(=O)(=O)O)c45)ccc3C)c2)c1 [suramin]
- apoptosis in liver damage [1]: inhibit apoptosis
